# Test results: PubChem BioAssay (NCI)
#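 How tested: cells in 96-well plates exposed to compound for 48 hours at five concentrations. TGI: total growth inhibition.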
# How the values were obtained:
# Test in all cases: growth of human tumour cells (NCI), 48 h
# 786-0 renal = tested on: 786-0 renal
# A498 renal = tested on: A498 renal
# A549 NSCLC = tested on: A549 NSCLC
# BT-549 breast = tested on: BT-549 breast
# CAKI-1 renal = tested on: CAKI-1 renal
# CCRF-CEM leukemia = tested on: CCRF-CEM leukemia
# COLO 205 colon = tested on: COLO 205 colon
# DU-145 prostate = tested on: DU-145 prostate
# EKVX NSCLC = tested on: EKVX NSCLC
# HCC-2998 colon = tested on: HCC-2998 colon
# HCT-116 colon = tested on: HCT-116 colon
# HCT-15 colon = tested on: HCT-15 colon
# HL-60(TB) leukemia = tested on: HL-60(TB) leukemia
# HS 578T breast = tested on: HS 578T breast
# HT29 colon = tested on: HT29 colon
# K-562 leukemia = tested on: K-562 leukemia
# KM12 colon = tested on: KM12 colon
# LOX IMVI melanoma = tested on: LOX IMVI melanoma
# M14 melanoma = tested on: M14 melanoma
# MALME-3M melanoma = tested on: MALME-3M melanoma
# MCF7 breast = tested on: MCF7 breast
# MDA-MB-231 breast = tested on: MDA-MB-231 breast
# MDA-MB-435 = tested on: MDA-MB-435
# MDA-N = tested on: MDA-N
# MOLT-4 leukemia = tested on: MOLT-4 leukemia
# NCI-H226 lung = tested on: NCI-H226 lung
# NCI-H23 lung = tested on: NCI-H23 lung
# NCI-H460 lung = tested on: NCI-H460 lung
# NCI-H522 lung = tested on: NCI-H522 lung
# NCI/ADR-RES ovarian = tested on: NCI/ADR-RES ovarian
# OVCAR-3 ovarian = tested on: OVCAR-3 ovarian
# OVCAR-4 ovarian = tested on: OVCAR-4 ovarian
# OVCAR-5 ovarian = tested on: OVCAR-5 ovarian
# OVCAR-8 ovarian = tested on: OVCAR-8 ovarian
# PC-3 prostate = tested on: PC-3 prostate
# RPMI-8226 leukemia = tested on: RPMI-8226 leukemia
# RXF 393 renal = tested on: RXF 393 renal
# SF-268 CNS = tested on: SF-268 CNS
# SF-539 CNS = tested on: SF-539 CNS
# SK-MEL-2 melanoma = tested on: SK-MEL-2 melanoma
# SK-MEL-28 melanoma = tested on: SK-MEL-28 melanoma
# SK-MEL-5 melanoma = tested on: SK-MEL-5 melanoma
# SK-OV-3 ovarian = tested on: SK-OV-3 ovarian
# SN12C renal = tested on: SN12C renal
# SNB-19 CNS = tested on: SNB-19 CNS
# SNB-75 CNS = tested on: SNB-75 CNS
# SR leukemia = tested on: SR leukemia
# SW-620 colon = tested on: SW-620 colon
# T-47D breast = tested on: T-47D breast
# TK-10 renal = tested on: TK-10 renal
# U251 CNS = tested on: U251 CNS
# UACC-257 melanoma = tested on: UACC-257 melanoma
# UACC-62 melanoma = tested on: UACC-62 melanoma
# UO-31 renal = tested on: UO-31 renal
# ACHN renal = tested on: ACHN renal
# HOP-62 NSCLC = tested on: HOP-62 NSCLC
# HOP-92 NSCLC = tested on: HOP-92 NSCLC
# IGROV1 ovarian = tested on: IGROV1 ovarian
# SF-295 CNS = tested on: SF-295 CNS
smiles,measurement,setting,value
[O-][N+](=Nc1ccccc1CO)c1ccccc1CO,TGI,786-0 renal,> 100 µM
same,TGI,A498 renal,> 100 µM
same,TGI,A549 NSCLC,> 100 µM
same,TGI,BT-549 breast,> 100 µM
same,TGI,CAKI-1 renal,> 100 µM
same,TGI,CCRF-CEM leukemia,> 100 µM
same,TGI,COLO 205 colon,> 100 µM
same,TGI,DU-145 prostate,> 100 µM
same,TGI,EKVX NSCLC,> 100 µM
same,TGI,HCC-2998 colon,> 100 µM
same,TGI,HCT-116 colon,> 100 µM
same,TGI,HCT-15 colon,> 100 µM
same,TGI,HL-60(TB) leukemia,> 100 µM
same,TGI,HS 578T breast,> 100 µM
same,TGI,HT29 colon,> 100 µM
same,TGI,K-562 leukemia,> 100 µM
same,TGI,KM12 colon,> 100 µM
same,TGI,LOX IMVI melanoma,> 100 µM
same,TGI,M14 melanoma,> 100 µM
same,TGI,MALME-3M melanoma,> 100 µM
same,TGI,MCF7 breast,> 100 µM
same,TGI,MDA-MB-231 breast,> 100 µM
same,TGI,MDA-MB-435,> 100 µM
same,TGI,MDA-N,> 100 µM
same,TGI,MOLT-4 leukemia,> 100 µM
same,TGI,NCI-H226 lung,> 100 µM
same,TGI,NCI-H23 lung,> 100 µM
same,TGI,NCI-H460 lung,> 100 µM
same,TGI,NCI-H522 lung,> 100 µM
same,TGI,NCI/ADR-RES ovarian,> 100 µM
same,TGI,OVCAR-3 ovarian,> 100 µM
same,TGI,OVCAR-4 ovarian,> 100 µM
same,TGI,OVCAR-5 ovarian,> 100 µM
same,TGI,OVCAR-8 ovarian,> 100 µM
same,TGI,PC-3 prostate,> 100 µM
same,TGI,RPMI-8226 leukemia,> 100 µM
same,TGI,RXF 393 renal,> 100 µM
same,TGI,SF-268 CNS,> 100 µM
same,TGI,SF-539 CNS,> 100 µM
same,TGI,SK-MEL-2 melanoma,> 100 µM
same,TGI,SK-MEL-28 melanoma,> 100 µM
same,TGI,SK-MEL-5 melanoma,> 100 µM
same,TGI,SK-OV-3 ovarian,> 100 µM
same,TGI,SN12C renal,> 100 µM
same,TGI,SNB-19 CNS,> 100 µM
same,TGI,SNB-75 CNS,> 100 µM
same,TGI,SR leukemia,> 100 µM
same,TGI,SW-620 colon,> 100 µM
same,TGI,T-47D breast,> 100 µM
same,TGI,TK-10 renal,> 100 µM
same,TGI,U251 CNS,> 100 µM
same,TGI,UACC-257 melanoma,> 100 µM
same,TGI,UACC-62 melanoma,> 100 µM
same,TGI,UO-31 renal,> 100 µM
O=C1CC2C(=O)c3ccccc3CC2c2ccccc21 (stereo not given),TGI,786-0 renal,> 100 µM
same,TGI,A498 renal,> 100 µM
same,TGI,A549 NSCLC,> 100 µM
same,TGI,ACHN renal,> 100 µM
same,TGI,BT-549 breast,> 100 µM
same,TGI,DU-145 prostate,> 100 µM
same,TGI,EKVX NSCLC,> 100 µM
same,TGI,HCT-116 colon,> 100 µM
same,TGI,HCT-15 colon,> 100 µM
same,TGI,HL-60(TB) leukemia,62.6 µM
same,TGI,HOP-62 NSCLC,> 100 µM
same,TGI,HOP-92 NSCLC,> 100 µM
same,TGI,HS 578T breast,> 100 µM
same,TGI,HT29 colon,> 100 µM
same,TGI,IGROV1 ovarian,> 100 µM
same,TGI,K-562 leukemia,> 100 µM
same,TGI,KM12 colon,> 100 µM
same,TGI,LOX IMVI melanoma,> 100 µM
same,TGI,M14 melanoma,> 100 µM
same,TGI,MALME-3M melanoma,> 100 µM
same,TGI,MCF7 breast,> 100 µM
same,TGI,MDA-MB-231 breast,> 100 µM
same,TGI,MDA-MB-435,55.3 µM
same,TGI,MDA-N,> 100 µM
same,TGI,MOLT-4 leukemia,69.3 µM
same,TGI,NCI-H226 lung,> 100 µM
same,TGI,NCI-H460 lung,> 100 µM
same,TGI,NCI-H522 lung,> 100 µM
same,TGI,OVCAR-3 ovarian,> 100 µM
same,TGI,OVCAR-4 ovarian,> 100 µM
same,TGI,OVCAR-5 ovarian,> 100 µM
same,TGI,OVCAR-8 ovarian,> 100 µM
same,TGI,PC-3 prostate,> 100 µM
same,TGI,RPMI-8226 leukemia,64 µM
same,TGI,SF-268 CNS,> 100 µM
same,TGI,SF-295 CNS,> 100 µM
same,TGI,SF-539 CNS,> 100 µM
same,TGI,SK-MEL-2 melanoma,> 100 µM
same,TGI,SK-MEL-28 melanoma,> 100 µM
same,TGI,SK-OV-3 ovarian,> 100 µM
same,TGI,SN12C renal,> 100 µM
same,TGI,SNB-19 CNS,> 100 µM
same,TGI,SNB-75 CNS,75 µM
same,TGI,SR leukemia,81.6 µM
same,TGI,SW-620 colon,> 100 µM
same,TGI,T-47D breast,87.7 µM
same,TGI,TK-10 renal,> 100 µM
same,TGI,U251 CNS,> 100 µM
same,TGI,UACC-257 melanoma,75.2 µM
same,TGI,UACC-62 melanoma,> 100 µM
same,TGI,UO-31 renal,> 100 µM
